Measured values reported in patent US20060111289A1, “Compositions and methods of using Alpha-fetoprotein growth inhibitory peptides” (Serometrix, LLC,, priority 2004, published 2006).
Marks after values point to notes of the source that are not given here. Where a SMILES comes first, the peptide text is derived from it.

Test system: LNCaP human prostate tumor cells
Experiment: Whole-cell voltage clamp of LNCaP cells
Assay type: cell-based
Conditions: peptide 10 μM, voltage ramp −100-100 mV (400 ms duration)
Procedure: LNCaP human prostate tumor cells were cultured on 5×5 mm plastic coverslips and were transferred to a microperfusion chamber on the stage of an inverted microscope. Whole-cell voltage clamp was accomplished with an Axopatch 200B (Axon Instr. Co., Union City, Calif.) using ruptured patches. Borosilicate glass capillaries (1.2 mm OD, 0.68 ID, type EN-I, Garner Glass Co., Claremont, Calif.) were used to fabricate patch pipettes (3-8 MΩ in the bath solution) with a Brown-Flaming horizontal micropipette puller (P-87, Sutter Instruments, San Rafael, Calif.). Patch-pipette tips were heat-polished prior to use. A micromanipulator (Narishige) fixed to the microscope positioned the pipettes. Electrode capacitance and access resistance were compensated prior to measurements. All experiments will be performed at room temperature (20-22° C.). The standard extracellular salt solution for ion currents contained (in mM): 150 NaCl, 6 KCl, 1.5 CaCl2, 1 MgCl2, 10 HEPES, 10 glucose, and pH adjusted to 7.4 with 1 N NaOH. […] Electrophysiological recordings were procured and analyzed using PClamp8 software (Axon Instr. Co, Union City, Calif.) and the WinASCD software (Guy Droogmans, Katholieke Universiteit; Leuven, B E). All results were recorded on computer hard drive or on digital audio tape (DAT). […]

SMILES: CC[C@H](C)[C@H](NC(=O)[C@@H]1CSSC[C@H](NC(=O)[C@H](C)NC(=O)[C@H](CC(C)C)NC(=O)[C@H](CC(C)C)NC(=O)[C@H](CCCCN)NC(=O)[C@H](CC(=O)O)NC(=O)[C@H](CCC(=O)O)NC(=O)[C@H](CO)NC(=O)[C@@H](N)CC(C)C)C(=O)NCC(=O)N[C@@H](CCC(=O)O)C(=O)NCC(=O)N[C@@H](C)C(=O)N[C@@H](C)C(=O)N[C@@H](CC(=O)O)C(=O)N[C@@H]([C@@H](C)CC)C(=O)N[C@@H]([C@@H](C)CC)C(=O)N[C@@H]([C@@H](C)CC)C(=O)NCC(=O)N[C@@H](Cc2c[nH]cn2)C(=O)N[C@@H](CC(C)C)C(=O)N1)C(=O)N[C@@H](CCCNC(=N)N)C(=O)N[C@@H](Cc1c[nH]cn1)C(=O)N[C@@H](CCC(=O)O)C(=O)N[C@@H](CCSC)C(=O)N[C@H](C(=O)N1CCC[C@H]1C(=O)N[C@H](C(=O)N[C@@H](CC(N)=O)C(=O)N1CCC[C@H]1C(=O)NCC(=O)N[C@H](C(=O)O)C(C)C)C(C)C)[C@@H](C)O [Cyclic GIP] (HELM PEPTIDE1{L.S.E.D.K.L.L.A.C.G.E.G.A.A.D.I.I.I.G.H.L.C.I.R.H.E.M.T.P.V.N.P.G.V}$PEPTIDE1,PEPTIDE1,9:R3-22:R3$$$V2.0; N-terminus and C-terminus assumed)
- Slope conductance (membrane conduction): 0.78 0.15* nS/pF
